Molecules are shown by their SMILES. Where two headings read alike, the source gives them in different places.

The target of assay [1] is FKBP12 (Homo sapiens, UniProt P62942). Put plainly: K1 test procedure: inhibition of peptidyl-prolyl isomerase (rotamase) activity of FKBP12, chymotrypsin-coupled assay. Type of assay: biochemical. The protocol: The inhibition of the prolyl peptidyl cis-trans isomerase activity of FKBP may be measured as an indicator of this affinity.
The cis-trans isomerization of an alanine-proline bond in a model substrate, N-succinyl-Ala-Ala-Pro-Phe-p-nitroanilide, is monitored spectrophotometrically in a chymotrypsin-coupled assay, which releases paranitroanilide from the trans form of the substrate. The inhibition of this reaction caused by the addition of different concentrations of inhibitor is determined, and the data is analyzed as a change in first-order rate constant as a function of inhibitor concentration to yield the apparent K1 values.
In a plastic cuvette are added […] of ice cold assay buffer (25 mM HEPES, pH 7.8, 100 mM NaCl), […] of FKBP (2.5 mM in 10 mM Tris-Cl pH 7.5, 100 mM NaCl, 1 mM dithiothreitol), […] of chymotrypsin (50 mg/ml in 1 mM HCl) and […] of test compound at various concentrations in dimethyl sulfoxide.

Assay [2] deals with sciatic nerve. The settings on record: rats with crushed sciatic nerves; Gold et al. 1994/1995, Steiner et al. 1997; cited from earlier work.
Assay [3] deals with cavernous nerve. Put plainly: Intracavernosal pressure (ICP) response to electrostimulation after cavernous nerve crush injury. In kind it is in vivo, Sprague-Dawley rats. The settings on record: for ICP response, Control side: control (intact) side; for ICP response, Control side / ICP response, Crush side: 1 day following R-cavernous nerve crush, i.p., FK506 1 mg/kg, Compound 153 15 mg/kg, +/- sem; for ICP response, Crush side: crush (injured) side. The protocol: (§1) Cavernous nerve injury was performed in 12 week old Sprague-Dawley rats by crushing the right cavernous nerve for 3×15 seconds with a fine tip forceps. The rats were treated with saline or Compound 153 (15 mg/kg i.p.) just prior to nerve crush. The right and left major pelvic ganglia were processed for nNOS immunoreactivity. Intracavernosal pressure (ICP) responses to electrostimulation of the right (injured) and left (intact) cavernous nerves were recorded for each animal at 24 hours or 7 days post injury.

Assay [4] deals with major pelvic ganglia. Briefly: nNOS immunoreactivity of right and left major pelvic ganglia after cavernous nerve crush. In kind it is in vivo, Sprague-Dawley rats. The following applies: FIG. 1; rat right cavernous nerve crush; 15 mg/kg i.p. just prior to nerve crush. The protocol:
as §1

The test system of assay [5] is major pelvic ganglia. Put plainly: Cresyl Violet staining of right and left major pelvic ganglia after cavernous nerve crush. In kind it is in vivo, Sprague-Dawley rats. The following applies: FIG. 2; rat right cavernous nerve crush.
Setting [6] is: apparent Ki, rotamase inhibition, Table XLIII, Formulas XXV to XXIX, read-out: K1.
Where [7] appears, read: relative potency ranking, Table XLII, Formulas XV to XXIV, read-out: Ki.
[8] abbreviates: apparent Ki, rotamase inhibition, Table XLI, Formulas I to XIV, read-out: Ki.

Sequence of FKBP12 (P62942 whole entry, species assumed): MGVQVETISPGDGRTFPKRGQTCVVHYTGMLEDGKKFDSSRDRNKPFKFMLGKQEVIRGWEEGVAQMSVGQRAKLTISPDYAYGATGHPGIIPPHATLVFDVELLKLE

`CCC(C)(C)C(=O)C(=O)N1CCC[C@H]1C(=O)OC/C=C/c1cc(OC)ccc1OC` [compound 151, 3-(2,5-dimethoxyphenyl)-1-prop-2-(E)-enyl (2S)-1-(3,3-dimethyl-1,2-dioxopentyl)-2-pyrrolidine-carboxylate]: the Ki in assay [1] (setting [6]) turned out to be 450 nM.

In the case of `COc1ccc(CCCSC(=O)[C@@H]2CCCN2S(=O)(=O)c2ccc(C)cc2)cc1` [compound 122, 3-(para-Methoxyphenyl)-1-propylmercaptyl(2S)-N-(a-toluenesulfonyl)pyrrolidine-2-carboxylate], the Ki in assay [1] (setting [7]) was in the range of 201 to 500 nM.

In the case of `COc1ccc(CCCSC(=O)C2CCCN2C(=S)NC2CCCCC2)cc1` (stereo not shown) [compound 105], the Ki in assay [1] (setting [7]) lay within 51 to 200 nM.

Turning to `CCC(C)(C)C(=O)C(=O)N1CCC[C@H]1C(=O)OCCCc1ccc[n+]([O-])c1` [compound 95], the Ki in assay [1] (setting [8]) turned out to be 225 nM.

Regarding `CCC(C)(C)C(=O)C(=O)N1CCC[C@H]1C(=O)SCCCc1cccc2ccccc12` [compound 47], the Ki in assay [1] (setting [8]) stood at 21 nM.

On to `CCC(C)(C)NC(=O)N1CCCC1C(=O)SCCC(c1ccccc1)c1ccccc1` (stereo not shown) [compound 110], for which the Ki in assay [1] (setting [7]) was 1 to 50 nM.

Turning to `O=C(SC(CCc1ccccc1)CCc1ccccc1)C1CCCCN1C(=O)NC1CCCCC1` (stereo not shown) [compound 114], in assay [1] (setting [7]), the Ki fell in the range of 1 to 50 nM.

In the case of `CCC(C)(C)NC(=S)N1CCCC1C(=O)SCCCc1cccnc1` (stereo not shown) [compound 109], in assay [1] (setting [7]), the Ki is 1 to 50 nM.

Take `COc1ccc(CCCSC(=O)[C@@H]2CCCN2S(=O)(=O)c2ccccc2)cc1` [compound 120, 3-(para-Methoxyphenyl)-1-propylmercaptyl(2S)-N-(benzenesulfonyl)pyrrolidine-2-carboxylate]: in assay [1] (setting [7]), the Ki lay in the range of 51 to 200 nM.

For the molecule `CCC(C)CNC(=O)N1CCC[C@H]1C(=O)SCCCc1cccnc1` (stereo partly drawn) [compound 101, 3-(3-Pyridyl)-1-propylmercaptyl 2S-1-[(2-methylbutyl)carbamoyl]pyrrolidine-2-carboxylate], in assay [1] (setting [7]), the Ki is 1 to 50 nM.

Regarding `O=C(C(=O)N1CCC[C@H]1C(=O)SCCCCc1ccccc1)C1CCCCC1` [compound 33], the Ki in assay [1] (setting [8]) amounted to 1700 nM.

Regarding `CC1(C)COC(=O)CCCCCCCCCCCOC(=O)[C@@H]2CCCCN2C(=O)C1=O` [compound 186, (24aS)-17,17-dimethylperhydropyrido[2,1-c] [1,9,4]dioxazacyclohenicosine-1,14,18,19-tetraone], the Ki in assay [1] (setting [6]) stood at 150 nM.

Turning to `CC[C@@H]1/C=C(\C)[C@@H](O)[C@H](C)C[C@H](OC)[C@H]2O[C@@](O)(C(=O)C(=O)N3CCCC[C@H]3C(=O)O[C@H](/C(C)=C/[C@@H]3CC[C@@H](O)[C@H](OC)C3)[C@H](C)[C@@H](O)CC1=O)[C@H](C)C[C@@H]2OC` [L-685,818], the “nerve regeneration and morphological/functional recovery following sciatic nerve crush” value in assay [2] is reported as “as effective as FK506”.

Regarding `CCC(C)(C)NC(=O)N1CCC[C@H]1C(=O)SCCCc1cccnc1` [compound 102], the Ki in assay [1] (setting [7]) lay in the range of 51 to 200 nM.

Consider `CCC(C)(C)C(=O)C(=O)N1CCC[C@H]1C(=O)OCCCc1cccnc1` [compound 153, 3-(3-Pyridyl)-1-propyl (2S)-1-(3,3-dimethyl-1,2-dioxopentyl)-2-pyrrolidinecarboxylate], for which, in assay [3] (Example 30, rats, 15 mg/kg i.p. just prior to nerve crush), the “effect of administration on crushed cavernous nerves” value was “regenerate the penile cavernous nerve”. In assay [3], the “ICP response, Control side” value is 42.8 +/− 1.9 and the “ICP response, Crush side” value is given as 42.7 +/− 2.2. For the same molecule, the “effect on the right and left major pelvic ganglia as processed for nNOS immunoreactivity” value in assay [4] is “protective effect”. Besides, the “effect on the right and left major pelvic ganglia as processed for Cresyl Violet staining” value in assay [5] is recorded as “protective effect”.

With `C=CC[C@@H]1/C=C(\C)C[C@H](C)C[C@H](OC)[C@H]2O[C@@](O)(C(=O)C(=O)N3CCCC[C@H]3C(=O)O[C@H](/C(C)=C/[C@@H]3CC[C@@H](O)[C@H](OC)C3)[C@H](C)[C@@H](O)CC1=O)[C@H](C)C[C@@H]2OC` [FK506, reference compound], in assay [3], the “ICP response, Control side” value is given as 36.9 +/− 7.7 and the “ICP response, Crush side” value is given as 32.0 +/− 6.7.

With `COc1ccc(CCCSC(=O)[C@@H]2CCCN2S(=O)(=O)Cc2ccccc2)cc1` [compound 121, 3-(para-Methoxyphenyl)-1-propylmercaptyl(2S)-N-(a-toluenesulfonyl)pyrrolidine-2-carboxylate], the Ki in assay [1] (setting [7]) is 51 to 200 nM.

(Values after patent US20030203890A1 (priority 2001, published 2003).)
